The values below come from patent publication US20190375778A1, “ADENOSINE DERIVATIVES FOR USE IN THE TREATMENT OF CANCER” (NuCana plc, priority 2016, published 2019).

Format in all cases: cell-based
The test system of assay [1] is A549. Description: MTT cytotoxicity assay, A549. Conditions: Homo sapiens, 96 h compound exposure, read-out: absolute IC50, A549.
Assay [2] concerns Murine leukemia L1210. Description: Cell proliferation (Coulter count) assay, L1210. Conditions: Mus musculus, 48 h, read-out: absolute IC50, L1210. In short, it runs like this: (§1)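 Cells grown in DMEM with 10% FBS. HeLa seeded at 10 000 cells/well, compound added after 24 h, counted day 5; L1210 and CEM seeded at 60 000 cells/well with compound, counted after 48 h and 72 h respectively. IC50 is concentration halving proliferation by Coulter count.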

For assay [3], the system named is human cervix carcinoma HeLa cells. Kind of assay: Cell proliferation (Coulter count) assay, HeLa. Conditions: 120 h, cell count on day 5, read-out: absolute IC50, HeLa. An outline of the steps:
as §1

Assay [4] relates to CCRFCEM. Description: CellTiterGlo viability assay, CCRFCEM. Conditions: Homo sapiens, CCRF-CEM, 72 h, read-out: IC50 CCRFCEM. An outline of the steps: (§2)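 Compounds serially diluted 3.16-fold in DMSO, prewarmed in media to 37 °C, and added to cells in duplicate (9 concentrations, 198 μM to 19.9 nM final, 0.5% DMSO). Plates incubated 3 days in a CO2 incubator, then viability read with CellTiterGlo.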
Background: Cellular ATP, detected with luciferase, serves as a proxy for viable cell number.

Assay [5] deals with HEL92.1.7. Kind of assay: CellTiterGlo viability assay, HEL92.1.7. Conditions: Homo sapiens, HEL 92.1.7, 72 h, read-out: IC50 HEL92.1.7. An outline of the steps:
as §2

Assay [6] has as its system HS445. Kind of assay: CellTiterGlo viability assay, HS445. Conditions: Hs 445, 72 h, read-out: IC50 HS445. On the procedure: (§3) In vitro viability assay were performed to assess the effects of compounds on cell viability in selected cell lines over ˜72 hrs using the CellTiterGlo (CTG, Promega-G7573) assay. The tests were performed in duplicates with treatment of compounds at 9 points, 3.16 folds titration in 96 well plates over ˜72 hrs. The compound starting concentrations were 198 μM. Cell viability assay using CellTiterGlo in 96-well plate were performed. Compound treatment 72 hrs, standard growth conditions, duplicates. Compounds were dissolved to 40 mM with thawed […]. Compounds were serially diluted at 3.16 fold in thawed DMSO, and warmed to 37° C. before being dissolved in media (2 μl+200 μl). After compounds were dissolved in media, media containing compounds were warmed to 37° C. in incubator and then compounds in media were added to cell plates (50 μl+50 μl) in duplicates. The compounds' final concentrations were from […] to 19.9 nM. All compound solubilities were checked and recorded again, then the plates were transferred to CO2 tissue culture incubator immediately and incubated for 3 days. DMSO final concentration is 0.5%.

Assay [7] has as its system Jurkat. Description: CellTiterGlo viability assay, Jurkat. Conditions: Homo sapiens, 72 h, read-out: IC50 Jurkat. On the procedure: as §3
For assay [8], the system named is K562. Kind of assay: CellTiterGlo viability assay, K562. Conditions: Homo sapiens, K562, 72 h, read-out: IC50 K562. An outline of the steps: as §2
Assay [9] relates to HepG2. Kind of assay: CellTiterGlo viability assay, HepG2. Conditions: Homo sapiens, HepG2, 72 h, read-out: IC50 HepG2. Here is the method:
as §3

The subject of assay [10] is MCF7. Description: CellTiterGlo viability assay, MCF7. Conditions: Homo sapiens, MCF7, 72 h, read-out: IC50 MCF7. Here is the method: as §3
Assay [11] has as its system NCI-H929. Kind of assay: CellTiterGlo viability assay, NCI-H929. Conditions: Homo sapiens, NCI-H929, 72 h, read-out: IC50 NCI-H929. In short, it runs like this:
as §2

Assay [12] relates to RL. Kind of assay: CellTiterGlo viability assay, RL. Conditions: Homo sapiens, RL, 72 h, read-out: IC50 RL. In short, it runs like this: as §2
Assay [13] concerns HL-60. Kind of assay: CellTiterGlo viability assay, HL-60. Conditions: Homo sapiens, HL-60, 72 h, read-out: IC50 HL-60. An outline of the steps:
as §2

Assay [14] deals with Z138. Description: CellTiterGlo viability assay, Z138. Conditions: Homo sapiens, Z-138, 72 h, read-out: IC50 Z138. On the procedure:
as §3

pIC50: −log10 of the molar value.

On to `Nc1ncnc2c1nc(Cl)n2[C@@H]1O[C@H](COP(=O)(NCC(=O)OCc2ccccc2)Oc2ccccc2)[C@@H](O)[C@H]1O` (mixture of isomers) [Compound B, Benzyl 2-(((((2R,3S,4R,5R)-5-(6-amino-8-chloro-9H-purin-9-yl)-3,4-dihydroxytetra-hydrofuran-2-yl)methoxy)(phenoxy)phosphoryl)amino)acetate], for which the negative-log IC50 (pIC50) is 4.82 to 5.30 in [1]; 4.82 to 5.30 in assay [2]; 5.30 to 7.00 in [3]; 5.30 to 7.00 in [4]; 5.30 to 7.00 in assay [5]; 4.82 to 5.30 in [6]. The negative logarithm of the IC50 (pIC50) in assay [7] is 5.30 to 7.00; in [8], 5.30 to 7.00; in [9], 5.30 to 7.00; in assay [10] it was 5.30 to 7.00; in [11], 4.82 to 5.30; in assay [12] it was 4.82 to 5.30. The pIC50 in [13] and in [14] was 5.30 to 7.00 each time.
As to `Nc1ncnc2c1nc(Cl)n2[C@@H]1O[C@H](COP(=O)(NCC(=O)OC2CCCCC2)Oc2ccccc2)[C@@H](O)[C@H]1O` (mixture of isomers) [Compound A, Cyclohexyl 2-(((((2R,3S,4R,5R)-5-(6-amino-8-chloro-9H-purin-9-yl)-3,4-dihydroxy-tetrahydrofuran-2-yl)methoxy)(phenoxy)phosphoryl)amino)acetate], the pIC50 in assay [1] is 4.00 to 4.82; in assay [2] it was 4.00 to 4.82; in [3], 4.00 to 4.82; in assay [4] it was 4.82 to 5.30; in assay [5], 4.82 to 5.30; in [6] it was less than 4.00. Besides, the pIC50 in assay [7] is 4.00 to 4.82; in [8], 4.82 to 5.30; in assay [9], 4.82 to 5.30; in [10], 4.00 to 4.82; in assay [11], 4.00 to 4.82; in [12], 4.82 to 5.30. The pIC50 in [13] was 4.82 to 5.30; in assay [14], 5.30 to 7.00.

Broadly, the pIC50 is −log10 of the IC50, conventionally taken in molar units.
